Test results reported in patent US20140187548A1, “6 SUBSTITUTED IMIDAZOPYRAZINES FOR USE AS MPS-1 AND TKK INHIBITORS IN THE TREATMENT OF HYPERPROLIFERATIVE DISORDERS” (BAYER INTELLECTUAL PROPERTY GMBH, priority 2010, published 2014).

Target: T1, human kinase Mps-1 (Homo sapiens, UniProt P33981)
T1 construct: N-terminally GST-tagged human full length recombinant Mps-1 kinase; GST (N); purchased Invitrogen, Karslruhe, Germany PV4071
T1 sequence (P33981 1-857): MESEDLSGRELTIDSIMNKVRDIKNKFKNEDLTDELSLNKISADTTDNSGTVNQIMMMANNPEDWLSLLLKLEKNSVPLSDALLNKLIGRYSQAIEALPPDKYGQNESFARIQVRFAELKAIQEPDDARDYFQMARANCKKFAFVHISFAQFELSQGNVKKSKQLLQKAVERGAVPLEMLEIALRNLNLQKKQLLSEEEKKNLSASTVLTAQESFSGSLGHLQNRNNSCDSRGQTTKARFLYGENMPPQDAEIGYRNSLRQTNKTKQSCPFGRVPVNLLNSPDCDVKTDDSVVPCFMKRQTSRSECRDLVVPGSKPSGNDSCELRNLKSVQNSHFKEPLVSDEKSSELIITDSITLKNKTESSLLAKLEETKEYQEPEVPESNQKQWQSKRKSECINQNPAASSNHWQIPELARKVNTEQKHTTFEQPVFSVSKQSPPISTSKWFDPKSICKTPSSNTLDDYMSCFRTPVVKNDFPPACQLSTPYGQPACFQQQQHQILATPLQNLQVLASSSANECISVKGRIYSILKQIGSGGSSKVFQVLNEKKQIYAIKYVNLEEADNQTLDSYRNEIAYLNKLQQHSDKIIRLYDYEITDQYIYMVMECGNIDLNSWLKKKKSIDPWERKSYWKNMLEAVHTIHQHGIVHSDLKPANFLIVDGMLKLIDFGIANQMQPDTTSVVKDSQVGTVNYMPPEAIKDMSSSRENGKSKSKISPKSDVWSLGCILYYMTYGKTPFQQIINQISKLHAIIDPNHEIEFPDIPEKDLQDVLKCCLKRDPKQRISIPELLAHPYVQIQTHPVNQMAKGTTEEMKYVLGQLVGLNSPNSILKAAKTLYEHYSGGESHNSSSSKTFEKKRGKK
Assay: Mps-1 kinase assay (TR-FRET)
Format: biochemical
Conditions: N-terminally GST-tagged human full length recombinant Mps-1; 10 μM ATP; 1 μM peptide substrate; 15 min pre-incubation; 60 min at 22° C.
Method in brief: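 TR-FRET read-out: after 1 h binding at 22° C, Eu-labelled anti-phospho-Ser/Thr antibody transfers to SA-XLent on the phosphorylated biotinylated peptide. The enzyme is GST-tagged full-length human Mps-1, typically about 1 nM final, in the linear range.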

SMILES	IC50 [nM]
Cc1cc(-c2cnc3c(NCCC(F)(F)F)nc(-c4ccccc4CO)cn23)ccc1C(=O)NC1CC1 [Example 1-138, N-cyclopropyl-4-{6-[2-(hydroxymethyl)phenyl]-8-[(3,3,3-trifluoro-propyl)amino]imidazo[1,2-a]pyrazin-3-yl}-2-methylbenzamide]	1.9
CC(C)CNc1nc(-c2cccc(F)c2)cn2c(-c3ccc(C(=O)NC4CC4)cc3)cnc12 [Example 1-40, N-cyclopropyl-4-{6-(3-fluorophenyl)-8-[(2-methylpropyl)amino]imidazo[1,2-a]pyrazin-3-yl}benzamide]	6.9
CC(C)(O)CNc1nc(C2=CCOCC2)cn2c(-c3ccc(C(=O)NC4CC4)c(Cl)c3)cnc12 [Example 1-102, 2-chloro-N-cyclopropyl-4-{6-(3,6-dihydro-2H-pyran-4-yl)-8-[(2-hydroxy-2-methylpropyl)amino]imidazo[1,2-a]pyrazin-3-yl}benzamide]	99
CC(C)CNc1nc(-c2ccc(Cl)c(C(=O)NC3CC3)c2)cn2c(-c3ccc(C(=O)NC4CC4)cc3)cnc12 [Example 1-84, 2-chloro-N-cyclopropyl-5-{3-[4-(cyclopropyl-carbamoyl)phenyl]-8-[(2-methylpropyl)amino]imidazo[1,2-a]pyrazin-6-yl}benzamide]	4.5
Cc1cccc(-c2cn3c(-c4ccc(C(=O)NC5CC5)cc4)cnc3c(NCC(C)C)n2)c1C [Example 1-9, N-cyclopropyl-4-{6-(2,3-dimethylphenyl)-8-[(2-methylpropyl)amino]imidazo[1,2-a]pyrazin-3-yl}benzamide]	2.4
CC(C)CNc1nc(-c2ccc(C(=O)N3CCCC3)cc2)cn2c(-c3ccc(C(=O)NC4CC4)cc3)cnc12 [Example 1-26, N-cyclopropyl-4-{8-[(2-methylpropyl)amino]-6-[4-(pyrrolidin-1-yl-carbonyl)phenyl]imidazo [1,2-a]pyrazin-3-yl} benzamide]	3.9
CC(C)CNc1nc(-c2ccc3[nH]ccc3c2)cn2c(-c3ccc(C(=O)NC4CC4)cc3)cnc12 [Example 1-74, N-cyclopropyl-4-{6-(1H-indol-5-yl)-8-[(2-methyl-propyl)amino]imidazo [1,2-a]pyrazin-3-yl} benzamide]	37.7
CN(C)c1ccc(-c2cn3c(-c4ccc(C(=O)NC5CC5)c(Cl)c4)cnc3c(NCCC(F)(F)F)n2)cc1 [Example 1-96, 2-chloro-N-cyclopropyl-4-{6-[4-(dimethylamino)phenyl]-8-[(3,3,3-trifluoropropyl)amino]imidazo[1,2-a]pyrazin-3-yl}benzamide]	22.6

The remaining lines, values ahead:

IC50 [nM]	SMILES
3.3	O=C(NC1CC1)c1ccc(-c2cnc3c(NCc4ccccn4)nc(-c4ccccc4)cn23)cc1 [Example 2-27, N-cyclopropyl-4-{6-phenyl-8-[(pyridin-2-ylmethyl)amino]imidazo[1,2-a]pyrazin-3-yl} benzamide]
2.8	O=C(NC1CC1)c1ccc(-c2cnc3c(NCc4ccoc4)nc(-c4ccccc4)cn23)cc1 [Example 2-76, N-cyclopropyl-4-{8-[(3-furylmethyl)amino]-6-phenylimidazo[1,2-a]pyrazin-3-yl}benzamide]
3.8	O=C(NC1CC1)c1ccc(-c2cnc3c(NCc4ccccc4)nc(-c4ccccc4)cn23)cc1 [Example 2-15, 4-[8-(benzylamino)-6-phenylimidazo[1,2-a]pyrazin-3-yl]-N-cyclopropyl-benzamide]
2.9	CCC(CNc1nc(-c2ccccc2)cn2c(-c3ccc(C(=O)NC4CC4)cc3)cnc12)OC (stereo not shown) [Example 2-58, N-cyclopropyl-4-{8-[(2-methoxybutyl)amino]-6-phenylimidazo[1,2-a]pyrazin-3-yl}benzamide]
1	NS(=O)(=O)CCNc1nc(-c2ccccc2)cn2c(-c3ccc(C(=O)NC4CC4)cc3)cnc12 [Example 2-64, N-cyclopropyl-4-{6-phenyl-8-[(2-sulfamoylethyl)amino]imidazo[1,2-a]pyrazin-3-yl} benzamide]
3.2	NCCCCCNc1nc(-c2ccccc2)cn2c(-c3ccc(C(=O)NC4CC4)cc3)cnc12 [Example 2-79, 4-{8-[(5-Aminopentyl)amino]-6-phenylimidazo[1,2-a]pyrazin-3-yl}-N-cyclopropylbenzamide]
3.5	COCCCNc1nc(-c2ccccc2)cn2c(-c3ccc(C(=O)NC4CC4)cc3)cnc12 [Example 2-46, N-cyclopropyl-4-{8-[(3-methoxypropyl)amino]-6-phenylimidazo[1,2-a]pyrazin-3-yl}benzamide]
3.3	Cc1cc(-c2cnc3c(NCC4CCOC4)nc(-c4ccc(F)cc4)cn23)ccc1C(=O)NC1CC1 (stereo not shown) [Example 10-11, N-cyclopropyl-4-{6-(4-fluorophenyl)-8-[(tetrahydrofuran-3-yl-methyl)amino]imidazo [1,2-a]pyrazin-3-yl}-2-methylbenzamide]
1.3	Cn1cc(CNc2nc(-c3ccccc3)cn3c(-c4ccc(C(=O)NC5CC5)cc4)cnc23)cn1 [Example 2-56, N-cyclopropyl-4-(8-{[(1-methyl-1H-pyrazol-4-yl)methyl]amino}-6-phenylimidazo[1,2-a]pyrazin-3-yl)benzamide]
3.4	O=C(NC1CC1)c1ccc(-c2cnc3c(NCCCOC[C@@H](O)CO)nc(-c4ccccc4)cn23)cc1 [Example 9-1, N-cyclopropyl-4-{8-[(3-{[(2S)-2,3-dihydroxypropyl]oxy}propyl)amino]-6-phenylimidazo[1,2-a]pyrazin-3-yl}benzamide]
3.1	O=C(NC1CC1)c1ccc(-c2cnc3c(NCC(F)F)nc(-c4ccccc4)cn23)cc1 [Example 2-52, N-cyclopropyl-4-{8-[(2,2-difluoroethyl)amino]-6-phenylimidazo[1,2-a]pyrazin-3-yl}benzamide]
5.4	CCC(C)c1cn2c(-c3ccc(C(=O)NC4CC4)cc3)cnc2c(NCC(C)C)n1 (stereo not shown) [Example 11-1, 4-{6-(butan-2-yl)-8-[(2-methylpropyl)amino]imidazo[1,2-a]pyrazin-3-yl}-N-cyclopropylbenzamide]
5.4	O=C(NC1CC1)c1ccc(-c2cnc3c(NCCSC(F)(F)F)nc(-c4ccccc4)cn23)cc1 [Example 2-83, N-cyclopropyl-4-[6-phenyl-8-({2-[(trifluoromethyl)sulfanyl]ethyl}amino)imidazo[1,2-a]pyrazin-3-yl]benzamide]
12.1	N#Cc1cccc(CNc2nc(-c3ccccc3)cn3c(-c4ccc(C(=O)NC5CC5)cc4)cnc23)c1 [Example 2-61, 4-{8-[(3-cyanobenzyl)amino]-6-phenylimidazo[1,2-a]pyrazin-3-yl}-N-cyclopropylbenzamide]
26.8	CN(C)CCCNc1nc(-c2ccccc2)cn2c(-c3ccc(C(=O)NC4CC4)cc3)cnc12 [Example 2-18, N-cyclopropyl-4-(8-{[3-(dimethylamino)propyl]amino}-6-phenylimidazo[1,2-a]pyrazin-3-yl)benzamide]
20	O=C(NC1CC1)c1ccc(-c2cnc3c(NCCN4CCNC4=O)nc(-c4ccccc4)cn23)cc1 [Example 2-47, N-cyclopropyl-4-(8-{[2-(2-oxoimidazolidin-1-yl)ethyl]amino}-6-phenylimidazo[1,2-a]pyrazin-3-yl)benzamide]
1.6	O=C(NC1CC1)c1ccc(-c2cnc3c(NCCCO)nc(-c4ccccc4)cn23)cc1 [Example 2-17, N-cyclopropyl-4-{8-[(3-hydroxypropyl)amino]-6-phenylimidazo[1,2-a]pyrazin-3-yl}benzamide]
